Read-outs that look alike come from different tables or passages of the source.
Assays:
human recombinant Btk = human recombinant Btk (Homo sapiens (Human), UniProt Q06187); assay: Btk Enzymatic Activity Assay (Caliper-based kinase assay); format: biochemical
Protocol: A Caliper-based kinase assay (Caliper Life Sciences, Hopkinton, Mass.) was used to measure inhibition of Btk kinase activity of a compound of the present disclosure. […] The reaction was then terminated with EDTA, final concentration 20 mM and the phosphorylated reaction product was quantified on a Caliper Desktop Profiler (Caliper LabChip 3000). […] This value is presented as the IC50.

protein target = protein target (Homo sapiens (Human), UniProt Q06187); assay: Reversibility of binding (compound in solution before and after target perturbation, HPLC-MS/MS)
Protocol: The following approach was developed to differentiate compounds that form irreversible covalent bond with their targets, such as non-cyano containing acrylamide compounds, from compound that form reversible covalent bond i.e., compounds and/or pharmaceutically acceptable salts of the present disclosure. […] The reactions were then treated with perturbations including both denaturation with 5 M guanidine hydrochloride and digestion with trypsin, disrupting proper folding of the target. […] The concentration of compound in solution was assessed both preceding and following perturbation using high performance liquid chromatography (HPLC) coupled to tandem mass spectrometry.

[1] = human recombinant Btk 0.5 nM, ATP 16 μM, room temperature 3 h

Chain of human recombinant Btk (Q06187 whole entry): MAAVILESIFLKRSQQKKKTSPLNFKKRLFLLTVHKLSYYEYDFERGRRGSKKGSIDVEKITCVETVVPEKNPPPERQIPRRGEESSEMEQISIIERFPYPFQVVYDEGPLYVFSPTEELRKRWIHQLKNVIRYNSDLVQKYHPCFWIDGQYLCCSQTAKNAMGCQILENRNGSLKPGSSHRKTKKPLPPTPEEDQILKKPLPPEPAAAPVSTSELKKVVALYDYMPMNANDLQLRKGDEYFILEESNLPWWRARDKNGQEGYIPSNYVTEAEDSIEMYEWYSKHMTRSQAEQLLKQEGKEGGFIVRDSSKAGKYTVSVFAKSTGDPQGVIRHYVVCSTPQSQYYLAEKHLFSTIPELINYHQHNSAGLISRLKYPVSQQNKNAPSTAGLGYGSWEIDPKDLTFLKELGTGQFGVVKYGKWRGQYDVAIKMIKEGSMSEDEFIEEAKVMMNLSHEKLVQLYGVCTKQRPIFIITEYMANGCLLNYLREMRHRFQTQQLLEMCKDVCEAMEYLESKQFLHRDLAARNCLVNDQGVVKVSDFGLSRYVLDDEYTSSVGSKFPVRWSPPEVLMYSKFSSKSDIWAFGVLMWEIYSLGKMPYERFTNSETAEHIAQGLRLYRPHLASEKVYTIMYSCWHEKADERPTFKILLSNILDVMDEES
Chain of protein target (Q06187 whole entry): as above

SMILES	IC50 (human recombinant Btk; [1]) [nM]	other results
CC(C)(C=C(C#N)C(=O)N1CCC[C@H]1Cn1nc(-c2ccc(Oc3ccccc3)cc2F)c2c(N)ncnc21)CN1CCOCC1 [Example 30, (S)-2-(2-((4-amino-3-(2-fluoro-4-phenoxyphenyl)-1H-pyrazolo[3,4-d]pyrimidin-1-yl)methyl)pyrrolidine-1-carbonyl)-4,4-dimethyl-5-morpholinopent-2-enenitrile]	5.2	
CC(C)(C=C(C#N)C(=O)N1CCC[C@H]1Cn1nc(-c2ccc(Oc3ccccc3)cc2F)c2c(N)ncnc21)N1CC2(COC2)C1 [Example 19a, (S)-2-(2-((4-amino-3-(2-fluoro-4-phenoxyphenyl)-1H-pyrazolo[3,4-d]pyrimidin-1-yl)methyl)pyrrolidine-1-carbonyl)-4-methyl-4-(2-oxa-6-azaspiro[3.3]heptan-6-yl)pent-2-enenitrile]		IC50 (human recombinant Btk): 5.6 nM
CC(C)(C=C(C#N)C(=O)N1CCC[C@H]1Cn1nc(-c2ccc(Oc3ccccc3)cc2F)c2c(N)ncnc21)N1CCCC1 [Example 5, (S)-2-(2-((4-amino-3-(2-fluoro-4-phenoxyphenyl)-1H-pyrazolo[3,4-d]-pyrimidin-1-yl)-methyl)pyrrolidine-1-carbonyl)-4-methyl-4-(pyrrolidin-1-yl)pent-2-enenitrile]	1.9	
CCN(C1COC1)C(C)(C)C=C(C#N)C(=O)N1CCC[C@@H](n2nc(-c3ccc(Oc4ccccc4)cc3F)c3c(N)ncnc32)C1 [Example 13a, (R)-2-(3-(4-amino-3-(2-fluoro-4-phenoxyphenyl)-1H-pyrazolo[3,4-d]pyrimidin-1-yl)piperidine-1-carbonyl)-4-(ethyl(oxetan-3-yl)amino)-4-methylpent-2-enenitrile]	0.9	
CCN1CCN(C(C)(C)C=C(C#N)C(=O)N2CCC[C@@H](n3nc(-c4ccc(Oc5ccccc5)cc4F)c4c(N)ncnc43)C2)CC1 [Example 20, 2-[(3R)-3-[4-amino-3-(2-fluoro-4-phenoxy-phenyl)pyrazolo[3,4-d]-pyrimidin-1-yl]piperidine-1-carbonyl]-4-(4-ethylpiperazin-1-yl)-4-methyl-pent-2-enenitrile]	0.9	
CN1CCN(C(C)(C)C=C(C#N)C(=O)N2CCC[C@H]2Cn2nc(-c3ccc(Oc4ccccc4)cc3F)c3c(N)ncnc32)CC1 [Example 8, 2-[(2S)-2-[[4-amino-3-(2-fluoro-4-phenoxyphenyl)pyrazolo[3,4-d]pyrimidin-1-yl]-methyl]pyrrolidine-1-carbonyl]-4-methyl-4-(4-methylpiperazin-1-yl)pent-2-enenitrile]		IC50 (human recombinant Btk): 3.8 nM
CC(C)(C=C(C#N)C(=O)N1CCC[C@@H](n2nc(-c3ccc(Oc4ccccc4)cc3F)c3c(N)ncnc32)C1)N1CCC(O)CC1 [Example 18, (R)-2-(3-(4-amino-3-(2-fluoro-4-phenoxyphenyl)-1H-pyrazolo[3,4-d]pyrimidin-1-yl)piperidine-1-carbonyl)-4-(4-hydroxypiperidin-1-yl)-4-methylpent-2-enenitrile]	0.7	
CC(C)(C=C(C#N)C(=O)N1CCC[C@H]1Cn1nc(-c2ccc(Oc3ccccc3)cc2F)c2c(N)ncnc21)N1CCNCC1 [Example 9, 2-[(2S)-2-[[4-amino-3-(2-fluoro-4-phenoxy-phenyl)pyrazolo[3,4-d]pyrimidin-1-yl]methyl]pyrrolidine-1-carbonyl]-4-methyl-4-piperazin-1-yl-pent-2-enenitrile]	4.7	
CC(C)(C=C(C#N)C(=O)N1CCC[C@@H](n2nc(-c3ccc(Oc4ccccc4)cc3F)c3c(N)ncnc32)C1)N1CC(O)C1 [Example 7, 2-((R)-3-(4-amino-3-(2-fluoro-4-phenoxyphenyl)-1H-pyrazolo[3,4-d]pyrimidin-1-yl)piperidine-1-carbonyl)-4-(3-hydroxyazetidin-1-yl)-4-methylpent-2-enenitrile]	0.9	
CN(C1COC1)C(C)(C)C=C(C#N)C(=O)N1CCC[C@@H](n2nc(-c3ccc(Oc4ccccc4)cc3F)c3c(N)ncnc32)C1 [Example 13, 2-[(3R)-3-[4-amino-3-(2-fluoro-4-phenoxy-phenyl)pyrazolo[3,4-d]pyrimidin-1-yl]piperidine-1-carbonyl]-4-methyl-4-[methyl(oxetan-3-yl)amino]pent-2-enenitrile]	0.6	
CC(C)(/C=C(\C#N)C(=O)N1CCC[C@@H](n2nc(-c3ccc(Oc4ccccc4)cc3F)c3c(N)ncnc32)C1)N1CC2(COC2)C1 [Example 19, 2-[(3R)-3-[4-amino-3-(2-fluoro-4-phenoxy-phenyl)pyrazolo[3,4-d]pyrimidin-1-yl]piperidine-1-carbonyl]-4-methyl-4-(6-oxa-2-azaspiro[3.3]heptan-2-yl)pent-2-enenitrile]	1.5	
CC(C)(C=C(C#N)C(=O)N1CCC[C@@H](n2nc(-c3ccc(Oc4ccccc4)cc3F)c3c(N)ncnc32)C1)N1CCN(S(C)(=O)=O)CC1 [Example 25, (R)-2-(3-(4-amino-3-(2-fluoro-4-phenoxyphenyl)-1H-pyrazolo[3,4-d]pyrimidin-1-yl)piperidine-1-carbonyl)-4-methyl-4-(4-(methylsulfonyl)piperazin-1-yl)pent-2-enenitrile]	1.4	
CCN1CCN(C(C)(C)C=C(C#N)C(=O)N2CCC[C@@H](n3nc(-c4ccc(Oc5ccccc5)cc4F)c4c(N)ncnc43)C2)CC1=O [Example 34, (R)-2-(3-(4-amino-3-(2-fluoro-4-phenoxyphenyl)-1H-pyrazolo[3,4-d]pyrimidin-1-yl)piperidine-1-carbonyl)-4-(4-ethyl-3-oxopiperazin-1-yl)-4-methylpent-2-enenitrile]	1.3	
CC(C)(C=C(C#N)C(=O)N1CCC1Cn1nc(-c2ccc(Oc3ccccc3)cc2F)c2c(N)ncnc21)N1CCOCC1 (stereo not shown) [Example 15, 2-[2-[[4-amino-3-(2-fluoro-4-phenoxy-phenyl)pyrazolo[3,4-d]pyrimidin-1-yl]methyl]azetidine-1-carbonyl]-4-methyl-4-morpholino-pent-2-enenitrile]	4.1	
CCN1CCN(C(C)(C)C=C(C#N)C(=O)N2CCC[C@H]2Cn2nc(-c3ccc(Oc4ccccc4)cc3F)c3c(N)ncnc32)CC1 [Example 8A, 2-[(2S)-2-[[4-amino-3-(2-fluoro-4-phenoxyphenyl)pyrazolo[3,4-d]pyrimidin-1-yl]-methyl]pyrrolidine-1-carbonyl]-4-methyl-4-(4-ethylpiperazin-1-yl)pent-2-enenitrile]		IC50 (human recombinant Btk): 0.9 nM
CC(C)N1CCN(C(C)(C)C=C(C#N)C(=O)N2CCC[C@@H](n3nc(-c4ccc(Oc5ccccc5)cc4F)c4c(N)ncnc43)C2)CC1 [Example 21, (R)-2-(3-(4-amino-3-(2-fluoro-4-phenoxyphenyl)-1H-pyrazolo[3,4-d]pyrimidin-1-yl)piperidine-1-carbonyl)-4-(4-isopropylpiperazin-1-yl)-4-methylpent-2-enenitrile]	0.7	
CN(C1COC1)C(C)(C)C=C(C#N)C(=O)N1CCC[C@H]1Cn1nc(-c2ccc(Oc3ccccc3)cc2F)c2c(N)ncnc21 [Example 10, 2-[(2S)-2-[[4-amino-3-(2-fluoro-4-phenoxy-phenyl)pyrazolo[3,4-d]pyrimidin-1-yl]methyl]pyrrolidine-1-carbonyl]-4-methyl-4-[methyl(oxetan-3-yl)amino]pent-2-enenitrile]	2.1	Compound in solution in the denatured or digested state? (protein target; after 5 M guanidine hydrochloride denaturation and trypsin digestion): yes; Compound in solution in the native state? (protein target; native (folded) target, target in excess of compound): no

Source: patent US8940744B2, “Pyrazolopyrimidine compounds as kinase inhibitors” (Principia Biopharma Inc., priority 2012, dated 2015)
